The target in the assay is T1, ligand binding domain of human ROR gamma (Homo sapiens, UniProt P51449).
T1 construct: NM_001001523; expressed in transfected cells; host or cells: HEK293T
T1 sequence (P51449 247-497 isoform P51449-2): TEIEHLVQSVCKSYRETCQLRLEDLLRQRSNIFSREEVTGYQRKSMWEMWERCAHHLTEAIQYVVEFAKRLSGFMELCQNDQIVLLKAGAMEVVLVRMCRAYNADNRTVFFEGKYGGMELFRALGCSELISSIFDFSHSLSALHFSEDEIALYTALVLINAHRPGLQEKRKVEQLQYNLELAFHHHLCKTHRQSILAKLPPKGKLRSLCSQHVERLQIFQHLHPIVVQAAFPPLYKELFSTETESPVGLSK
In words: ROR gamma reporter gene assay (GAL4-RORγ LBD luciferase, Dual-Glo). It counts as cell-based. The note with it: HEK293T cells transfected with pM-ROR gamma, 8 concentrations 3.5 nM to 10.5 μM, 24 h incubation; read-out: result (pIC50, inhibition of RORγ transcriptional activity) (converted). Put shortly:
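HEK293T cells co-transfected with GAL4-DBD fused to human RORγ LBD (aa 247-497), 5×UAS firefly luciferase reporter and CMV-renilla, in charcoal-stripped serum.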
On the technique in general: In a reporter assay the amount or activity of a reporter protein is the signal.

We go through 22 compounds from patent US9365522B2, “Pyrazole amide derivative” (AMGEN INC., priority 2015, dated 2016).

For the compound `CC(C)(C)[C@H]1C[C@H](CN(CC(=O)c2c(Cl)cncc2Cl)C(=O)c2cnn([C@H]3CC[C@H](C(=O)O)CC3)c2C(F)(F)F)C1` [Example 125, trans-4-(4-((3-tert-butylcyclobutyl)methyl-(2-(3,5-dichloropyridin-4-yl)-2-oxoethyl)carbamoyl)-5-(trifluoromethyl)pyrazol-1-yl)cyclohexane-1-carboxylic acid], the IC50 was 324000 pM.

`CC(C)(C)[C@H]1C[C@@H](CN(CC(=O)c2c(Cl)cncc2Cl)C(=O)c2cnn([C@H]3CC[C@H](C(=O)O)CC3)c2C(F)(F)F)C1` [Example 126, trans-4-(4-((3-tert-butylcyclobutyl)methyl-(2-(3,5-dichloropyridin-4-yl)-2-oxoethyl)carbamoyl)-5-(trifluoromethyl)pyrazol-1-yl)cyclohexane-1-carboxylic acid]: the IC50 is 912000 pM.

Regarding `O=C(CN(Cc1cc(F)cc(F)c1)C(=O)c1cnn([C@H]2CC[C@H](C(=O)O)CC2)c1C(F)(F)F)c1c(Cl)cc(OC(F)(F)F)cc1Cl` [Example 127, trans-4-(4-((2-(2,6-dichloro-4-(trifluoromethoxy)phenyl)-2-oxoethyl)-((3,5-difluorophenyl)methyl)carbamoyl)-5-(trifluoromethyl)pyrazol-1-yl)cyclohexane-1-carboxylic acid], the IC50 was 2.04e+06 pM. For `N#C[C@]1(C(=O)O)CC[C@@H](n2ncc(C(=O)N(CC(=O)c3c(Cl)cncc3Cl)Cc3ccc(F)cc3)c2C(F)(F)F)CC1` [Example 128, trans-4-(4-((2-(3,5-dichloropyridin-4-yl)-2-oxoethyl)-((4-fluorophenyl)methyl)carbamoyl)-5-(trifluoromethyl)pyrazol-1-yl)-1-cyanocyclohexane-1-carboxylic acid] the value was over 1e+07 pM; for `N#C[C@]1(C(=O)O)CC[C@H](n2ncc(C(=O)N(CC(=O)c3c(Cl)cncc3Cl)Cc3ccc(F)cc3)c2C(F)(F)F)CC1` [Example 129, trans-4-(4-((2-(3,5-dichloropyridin-4-yl)-2-oxoethyl)-((4-fluorophenyl)methyl)carbamoyl)-5-(trifluoromethyl)pyrazol-1-yl)-1-cyanocyclohexane-1-carboxylic acid], 8.71e+06 pM.

As to `CC1(C)CCC(CN(CC(=O)c2c(Cl)cncc2Cl)C(=O)c2cnn([C@H]3CC[C@H](C(=O)O)CC3)c2C(F)(F)F)CO1` (stereo partly shown) [Example 130], the IC50 is 174000 pM. As for `CC(C)(C)[C@H]1C[C@@H](N(CC(=O)c2c(Cl)cncc2Cl)C(=O)c2cnn([C@H]3CC[C@H](C(=O)O)CC3)c2C(F)(F)F)C1` [Example 131, trans-4-(4-((3-tert-butylcyclobutyl)-(2-(3,5-dichloropyridin-4-yl)-2-oxoethyl)carbamoyl)-5-(trifluoromethyl)pyrazol-1-yl)cyclohexane-1-carboxylic acid], the IC50 is 83200 pM. `CC(C)(C)[C@H]1C[C@H](N(CC(=O)c2c(Cl)cncc2Cl)C(=O)c2cnn([C@H]3CC[C@H](C(=O)O)CC3)c2C(F)(F)F)C1` [Example 132, trans-4-(4-((3-tert-butylcyclobutyl)-(2-(3,5-dichloropyridin-4-yl)-2-oxoethyl)carbamoyl)-5-(trifluoromethyl)pyrazol-1-yl)cyclohexane-1-carboxylic acid]: the IC50 is 66100 pM. For `Cc1ccnc(C)c1C(=O)CN(Cc1cc(F)cc(F)c1)C(=O)c1cnn([C@H]2CC[C@H](C(=O)O)CC2)c1C(F)(F)F` [Example 134, trans-4-(4-((3,5-difiuorophenyl)methyl-(2-(2,4-dimethylpyridin-3-yl)-2-oxoethyl)carbamoyl)-5-(trifluoromethyl)pyrazol-1-yl)cyclohexane-1-carboxylic acid] the value was 245000 pM. The same measure for `O=C(CN(Cc1cc(F)cc(F)c1)C(=O)c1cnn([C@H]2CC[C@H](C(=O)O)CC2)c1Cl)c1c(Cl)cncc1Cl` [Example 135, trans-4-(5-chloro-4-((2-(3,5-dichloropyridin-4-yl)-2-oxoethyl)-((3,5-difluorophenyl)methyl)carbamoyl)pyrazol-1-yl)cyclohexane-1-carboxylic acid]: 3.09e+06 pM; for `O=C(CN(Cc1cc(F)cc(F)c1)C(=O)c1cnn([C@H]2CC[C@H](C(=O)O)CC2)c1C(F)(F)F)c1ccc(C(F)(F)F)cc1Cl` [Example 136, trans-4-(4-((2-(2-chloro-4-(trifluoromethyl)phenyl)-2-oxoethyl)-((3,5-difluorophenyl)methyl)carbamoyl)-5-(trifluoromethyl)pyrazol-1-yl)cyclohexane-1-carboxylic acid]: 83200 pM.

Consider `Cc1cc(Cl)c(C(=O)CN(Cc2cc(F)cc(F)c2)C(=O)c2cnn([C@H]3CC[C@H](C(=O)O)CC3)c2C(F)(F)F)c(Cl)c1` [Example 137, trans-4-(4-((2-(2,6-dichloro-4-methylphenyl)-2-oxoethyl)-((3,5-difluorophenyl)methyl)carbamoyl)-5-(trifluoromethyl)pyrazol-1-yl)cyclohexane-1-carboxylic acid], for which the IC50 is 4790 pM. The same measure for `C[C@]1(C(=O)O)CC[C@H](n2ncc(C(=O)N(Cc3cc(F)cc(F)c3)C[C@H](F)c3c(Cl)cccc3Cl)c2C(F)(F)F)CC1` [Example 138, trans-4-(4-(((2R)-2-(2,6-dichlorophenyl)-2-fluoroethyl)-((3,5-difluorophenyl)methyl)carbamoyl)-5-(trifluoromethyl)pyrazol-1-yl)-1-methylcyclohexane-1-carboxylic acid]: 7240 pM. In the case of `C[C@]1(C(=O)O)CC[C@H](n2ncc(C(=O)N(Cc3cc(F)cc(F)c3)C[C@@H](F)c3c(Cl)cccc3Cl)c2C(F)(F)F)CC1` [Example 139, trans-4-(4-(((2S)-2-(2,6-dichlorophenyl)-2-fluoroethyl)-((3,5-difluorophenyl)methyl)carbamoyl)-5-(trifluoromethyl)pyrazol-1-yl)-1-methylcyclohexane-1-carboxylic acid], the IC50 was 17400 pM. With `CC(C)(C)CC1CC(CN(CC(=O)c2c(Cl)cncc2Cl)C(=O)c2cnn([C@H]3CC[C@H](C(=O)O)CC3)c2C(F)(F)F)C1` (stereo partly drawn) [Example 140, trans-4-(4-((2-(3,5-dichloropyridin-4-yl)-2-oxoethyl)-((3-(2,2-dimethylpropyl)cyclobutyl)methyl)carbamoyl)-5-(trifluoromethyl)pyrazol-1-yl)cyclohexane-1-carboxylic acid], the IC50 is 200000 pM. In the case of `Nc1ccccc1C(=O)CN(Cc1cc(F)cc(F)c1)C(=O)c1cnn([C@H]2CC[C@H](C(=O)O)CC2)c1C(F)(F)F` [Example 142, trans-4-(4-((2-(2-aminophenyl)-2-oxoethyl)-((3,5-difluorophenyl)methyl)carbamoyl)-5-(trifluoromethyl)pyrazol-1-yl)cyclohexane-1-carboxylic acid], the IC50 is 6.61e+06 pM.

Turning to `Cc1ccc(N)c(C(=O)CN(Cc2cc(F)cc(F)c2)C(=O)c2cnn([C@H]3CC[C@H](C(=O)O)CC3)c2C(F)(F)F)c1` [Example 143, trans-4-(4-((2-(2-amino-5-methylphenyl)-2-oxoethyl)-((3,5-difluorophenyl)methyl)carbamoyl)-5-(trifluoromethyl)pyrazol-1-yl)cyclohexane-1-carboxylic acid], the IC50 is 2.24e+06 pM.

Take `CC(C)(C)OCCN(CC(=O)c1c(Cl)cc(C(F)(F)F)cc1Cl)C(=O)c1cnn([C@H]2CC[C@H](C(=O)O)CC2)c1C(F)(F)F` [Example 144, trans-4-(4-((2-(2,6-dichloro-4-(trifluoromethyl)phenyl)-2-oxoethyl)-(2-((2-methylpropan-2-yl)oxy)ethyl)carbamoyl)-5-(trifluoromethyl)pyrazol-1-yl)cyclohexane-1-carboxylic acid]: the IC50 is 87100 pM. Take `O=C(CN(Cc1cncnc1)C(=O)c1cnn([C@H]2CC[C@H](C(=O)O)CC2)c1C(F)(F)F)c1c(Cl)cccc1Cl` [Example 146, trans-4-(4-((2-(2,6-dichlorophenyl)-2-oxoethyl)-(pyrimidin-5-ylmethyl)carbamoyl)-5-(trifluoromethyl)pyrazol-1-yl)cyclohexane-1-carboxylic acid]: the IC50 is 148000 pM. The same measure for `O=C(CN(Cc1ccccc1O)C(=O)c1cnn([C@H]2CC[C@H](C(=O)O)CC2)c1C(F)(F)F)c1c(Cl)cncc1Cl` [Example 147, trans-4-(4-((2-(3,5-dichloropyridin-4-yl)-2-oxoethyl)-((2-hydroxyphenyl)methyl)carbamoyl)-5-(trifluoromethyl)pyrazol-1-yl)cyclohexane-1-carboxylic acid]: 347000 pM. For `CC(C)(C)c1c(C(=O)N(CC(=O)c2c(Cl)cncc2Cl)Cc2cc(F)cc(F)c2)cnn1[C@H]1CC[C@H](C(=O)O)CC1` [Example 148, trans-4-(5-tert-butyl-4-((2-(3,5-dichloropyridin-4-yl)-2-oxoethyl)-((3,5-difluorophenyl)methyl)carbamoyl)pyrazol-1-yl)cyclohexane-1-carboxylic acid] the value was 479000 pM; for `CC(C)(C)OCCN(CC(=O)c1c(Cl)cc(C(F)(F)F)cc1Cl)C(=O)c1cnn([C@H]2CC[C@](C)(C(=O)O)CC2)c1C(F)(F)F` [Example 149, trans-4-(4-((2-(2,6-dichloro-4-(trifluoromethyl)phenyl)-2-oxoethyl)-(2-((2-methylpropan-2-yl)oxy)ethyl)carbamoyl)-5-(trifluoromethyl)pyrazol-1-yl)-1-methylcyclohexane-1-carboxylic acid], 60300 pM.
